Source: patent US20080194020A1, “Methods For Producing Dendritic Cells That Have Acquired Ctl-Inducing Ability” (Medical and Biological Laboratories Co., Ltd., priority 2004, published 2008)
Peptide text beside a SMILES is read from it. * marks the point of attachment. Cbz = O=C(OCc1ccccc1)*

Experiments:
Assay type in all cases: cell-based, mouse
DC2.4 cells [1] = experiment: Degradation of cell-bound bOVA in DC2.4 cells (pulse-chase, SA beads, Western blot); details: for effect on decrease (degradation) of cell-bound bOVA: DC2.4 cells incubated with bOVA one hour, chased up to four hours, inhibitor present; for effect on degradation of bOVA taken up into cells: FIG. 1b; for effect on degradation of accumulated bOVA (ERAD inhibition): DC2.4 cells pulsed with bOVA in the presence of MG-132, chased four hours; for effect on bOVA degradation: FIG. 4b
Procedure: Next, DC2.4 cells were incubated with bOVA for one hour, and this was then chased for up to four hours. Cell-bound bOVA was recovered from total cell lysates by streptavidin-agarose and separated by SDS-PAGE.
Depletion of Ca^2+ in the ER is known to inhibit ERAD. Thapsigargin (Tg) is known to decrease the Ca^2+ concentration in the ER lumen by binding to the ER membrane and functioning as an ionophore and to inhibit ERAD. Thus, in the presence of Tg, bOVA degradation by ERAD is predicted to be suppressed. DC2.4 cells were pulsed with bOVA in the presence of MG-132, then washed with PBS or with PBS containing 1 mM EGTA, and then chased for four hours.
Furthermore, the effect of tunicamycin treatment on bOVA accumulation was examined. When cells are treated with tunicamycin (Tm), N-type glycosylation is inhibited, and abnormally folded proteins accumulate in the ER lumen.

DC2.4 cells [2] = experiment: MHC class I cross-presentation by DC2.4 cells to OT-I CD8+ T cells (IL-2 ELISA); details: for effect on stimulation of OT-I CD8+ T cells by OVA (IL-2 production) / effect on stimulation of OT-I CD8+ T cells by SIINFEKL peptide (IL-2 production): FIG. 8b; for effect on stimulation of OT-I CD8+ T cells by OVA (IL-2 production): OVA 250 μg mL−1; for effect on stimulation of OT-I CD8+ T cells by SIINFEKL peptide (IL-2 production): SIINFEKL 10 ng mL−1
Description: Whether knock-down of cellular components involved in ERAD decreases the cross-presentation of exogenous OVA antigen was examined using a system for evaluating the level of antigen presentation, which uses naive CD8^+ T cells from OT-I mice and DC2.4 cells. The DC2.4 cells used as a model of dendritic cells are of the H-2Kb mouse MHC class I haplotype. OT-I (H-2Kb) mice are transgenic mice expressing a T cell receptor (TCRα and β) that recognizes an antigenic peptide (SIINFEKL) (SEQ ID NO: 15) derived from OVA presented on the H-2Kb molecules. The CD8^+ cells of OT-I mice are activated when they recognize OVA peptides presented by BMDCs derived from H-2Kb mice or by DC2.4 cells. When OVA or bOVA is incubated with and affixed onto DC2.4 cells and the cells are further incubated with naive CD8^+ T cells of OT-I mice, the amount of IL-2 produced by OT-I CD8^+ T cells serves as an index of T-cell stimulation as a result of OVA antigen presented by DC2.4 cells.
Parental or knocked-down DC2.4 cells were pre-incubated in a culture medium supplemented with 50 μg mL^−1 polymyxin B for 30 minutes in the presence or absence of lactacystin or MG-132, and incubated with OVA (250 μg mL^−1) or SIINFEKL peptides (10 ng mL^−1) for six hours. The cells were washed, fixed with 1% paraformaldehyde, and aliquoted into microtiter plates (5×10^4 per well). 5×10^4 CD8^+ T cells purified from splenocytes of OT-1 mice using magnetic beads were added to each well and after a 24-hour incubation, the IL-2 secretion was measured by ELISA (BD Biosciences) in triplicate.
DC2.4 cells were incubated with OVA (0, 50, or 250 μg/mL) in RPMI1640/10c% FCS for six hours at 37° C., in the presence or absence of pig-derived HSP90 (10 μg/mL). After washing away the antigen and HSP, OT-I CD8^+ T cells were added, cells were cultured overnight at 37° C., and the amount of IL-2 comprised in the supernatant was measured by the ELISA method.
The timing of the addition of HSP90 (10 μg/mL) and OVA (250 μg/mL) to DC2.4 cells was varied, and the effect on class I antigen presentation was observed. (i) HSP90 was added first, DC2.4 cells were washed, and then OVA was added. (ii) HSP90 and OVA were added simultaneously to DC2.4 cells. (iii) OVA was added first, and after washing DC2.4 cells, HSP90 was added. The results obtained under these three conditions were compared. As a control for all these conditions, an experiment in which only OVA, but not HSP90, was added was also carried out.
Under condition (i), HSP90 was added to DC2.4 cells, the cells were cultured for 30 minutes and then washed to remove HSP90. Next, OVA was added and the cells were cultured for three hours. Thereafter, OVA was removed by washing, and cells were cultured in just the culture medium for three hours. DC2.4 cells activated with OVA by the above procedure were plated in a 96-well plate, OT-I mouse-derived CD8^+ T cells were added to this, and after culturing overnight, the amount of IL-2 released into the supernatant was measured by ELISA.
Under condition (ii), OVA and HSP90 were added simultaneously to DC2.4 cells, cells were cultured for three hours, then washed, and cultured in just the culture medium for three hours. Thereafter, the procedures to investigate the activation of OT-I mouse-derived CD8^+ T cells was carried out similarly to in (i) above.
Under condition (iii), OVA was first added to DC2.4 cells, cells were cultured for three hours, and then washed to remove OVA. Next, HSP90 was added, and the cells were cultured for another three hours. The procedures that follow were carried out similarly to that of (i) and (ii). Meanwhile, timings were set such that the incubation times during the stage in which cells are in contact with OVA and the stage at which OVA has been taken up were the same under conditions (i) to (iii).

DC2.4 cells [3] = experiment: MHC class II antigen presentation by DC2.4 cells to OT-II CD4+ T cells (IL-2 production); details: DC2.4 cells pretreated in the presence of NH4Cl, cultured with OVA
Procedure: DC2.4 cells pretreated in the presence of NH4Cl were cultured with OVA, and then the stimulation of OT-I CD8^+ T cells in response to MHC class I antigen presentation (circles) and stimulation of OT-II CD4^+ T cells in response to MHC class II antigen presentation (triangles) was determined by measuring IL-2 production levels. IL-2 production level in the presence of NH4Cl was expressed as a ratio relative to the control (IL-2 production was 700 pg/mL relative to OT-I, and 20 pg mL relative to OT-II).

CC(C)C[C@@H](C=O)NC(=O)[C@H](CC(C)C)NC(=O)[C@H](CC(C)C)NC(=O)OCc1ccccc1 [MG-132, reference compound] (Cbz-Leu-Leu-Leu-aldehyde)
effect on decrease (degradation) of cell-bound bOVA (DC2.4 cells [1]): this decrease was blocked
effect on degradation of bOVA taken up into cells (DC2.4 cells [1]; MG-132 10 μM): reduced the degradation of bOVA taken up into cells
effect on stimulation of OT-I CD8+ T cells by OVA (IL-2 production) (DC2.4 cells [2]; MG-132 25 μM): suppressed stimulation by OVA
effect on stimulation of OT-I CD8+ T cells by SIINFEKL peptide (IL-2 production) (DC2.4 cells [2]; MG-132 25 μM): did not suppress stimulation by the SIINFEKL peptide

Cl.N [NH4Cl, Ammonium chloride, reference compound]
effect on decrease (degradation) of cell-bound bOVA (DC2.4 cells [1]): did not significantly affect bOVA degradation
effect on degradation of bOVA taken up into cells (DC2.4 cells [1]; NH4Cl 50 mM): did not reduce this degradation
effect on presentation of OVA antigen with MHC class I to OT-I CD8+ T cells (DC2.4 cells [2]; DC2.4 cells pretreated with inhibitor, cultured with OVA): did not reduce the presentation of the OVA antigen with MHC class I
effect on presentation of OVA antigen with MHC class II to OT-II CD4+ cells (DC2.4 cells [3]): inhibited the presentation with MHC class II

CC(=O)N[C@@H](CSC(=O)[C@]1([C@@H](O)C(C)C)NC(=O)[C@H](C)[C@@H]1O)C(=O)O [lactacystin, reference compound]
effect on decrease (degradation) of cell-bound bOVA (DC2.4 cells [1]): this decrease was blocked
effect on degradation of bOVA taken up into cells (DC2.4 cells [1]; lactastatin 2 μM): reduced the degradation of bOVA taken up into cells
effect on stimulation of OT-I CD8+ T cells by OVA (IL-2 production) (DC2.4 cells [2]; Lactastatin 10 μM): suppressed stimulation by OVA
effect on stimulation of OT-I CD8+ T cells by SIINFEKL peptide (IL-2 production) (DC2.4 cells [2]; Lactastatin 10 μM): did not suppress stimulation by the SIINFEKL peptide

C/C=C(/C)C(=O)O[C@H]1C(C)=C2[C@H]([C@@H]1OC(=O)CCCCCCC)[C@@](C)(OC(C)=O)C[C@H](OC(=O)CCC)[C@@]1(O)[C@H]2OC(=O)[C@@]1(C)O [thapsigargin, Thapsigargin]
effect on degradation of accumulated bOVA (ERAD inhibition) (DC2.4 cells [1]): inhibited the degradation of accumulated bOVA
effect on bOVA degradation (DC2.4 cells [1]; thapsigargin 300 nM): bOVA degradation is inhibited

tunicamycin
effect on degradation of accumulated bOVA (ERAD inhibition) (DC2.4 cells [1]): bOVA degradation was inhibited
effect on bOVA degradation (DC2.4 cells [1]; tunicamycin 2 g): bOVA degradation is inhibited
